# Results: ChEMBL document CHEMBL1135963, “Synthesis and vasorelaxant activity of new coumarin and furocoumarin derivatives” (Bioorg Med Chem Lett, 2002)
# Key:
# Rattus norvegicus [1] = organism: Rattus norvegicus; assay: Compound was tested for the vasorelaxation in rat aorta rings pre-contracted with KCl 60 mM; type: functional, organism-based
# Rattus norvegicus [2] = organism: Rattus norvegicus; assay: Compound was tested for the vasorelaxation in rat aorta rings pre-contracted with noradrenaline (NA) 10 uM; type: functional, organism-based
# Rattus norvegicus [3] = organism: Rattus norvegicus; assay: Antagonist PD'2 which is the negative logarithm of the molar concentration of antagonist required to cause 50% depression of the maximal response of the agonist was determined; type: functional
# Rattus norvegicus [4] = organism: Rattus norvegicus; assay: Effect on concentration dependent contractions in rat aortic rings expressed as pD2 value; type: functional, Aorta
Compound,IC50 (Rattus norvegicus [1]),IC50 (Rattus norvegicus [2]),PD'2 (Rattus norvegicus [3]),pD2 (Rattus norvegicus [4])
Cc1coc2cc3oc(=O)cc(CO)c3cc12,54 µM,68.4 µM,4.73,–
COc1c(O)ccc2c(CO)cc(=O)oc12,1010 µM,933 µM,2.57,–
CC(=O)COc1c2occ(C)c2cc2c(CO)cc(=O)oc12,93.3 µM,52.6 µM,–,–
COc1c2occ(C)c2cc2c(CO)cc(=O)oc12,42.6 µM,42 µM,–,–
CC(=O)COc1ccc2c(CO)cc(=O)oc2c1OCC(C)=O,> 1000 µM,> 1000 µM,–,–
CCOC(=O)COc1ccc2c(C)c(CCN(CC)CC)c(=O)oc2c1 [CHROMONAR],> 1000 µM,> 1000 µM,–,–
COc1c2occc2c(OC)c2c(=O)cc(C)oc12 [KHELLIN],316 µM,309 µM,4.46,–
NC[C@H](O)c1ccc(O)c(O)c1 [NOREPINEPHRINE],–,–,–,6.07
